Test [1] is described as follows: Relative binding to alpha-1a and alpha-2 adrenergic receptors (ratio of Ki-prazosin and Ki-clonidine).
Test [2] can be described thus: Displacement of [3H]clonidine from calf cerebral cortex alpha-2 adrenergic receptor. The class given is tissue-based, Bos taurus.
Test [3] deals with T1, Alpha-1A adrenergic receptor (Bos taurus, UniProt P18130).
T1 sequence (P18130 whole entry): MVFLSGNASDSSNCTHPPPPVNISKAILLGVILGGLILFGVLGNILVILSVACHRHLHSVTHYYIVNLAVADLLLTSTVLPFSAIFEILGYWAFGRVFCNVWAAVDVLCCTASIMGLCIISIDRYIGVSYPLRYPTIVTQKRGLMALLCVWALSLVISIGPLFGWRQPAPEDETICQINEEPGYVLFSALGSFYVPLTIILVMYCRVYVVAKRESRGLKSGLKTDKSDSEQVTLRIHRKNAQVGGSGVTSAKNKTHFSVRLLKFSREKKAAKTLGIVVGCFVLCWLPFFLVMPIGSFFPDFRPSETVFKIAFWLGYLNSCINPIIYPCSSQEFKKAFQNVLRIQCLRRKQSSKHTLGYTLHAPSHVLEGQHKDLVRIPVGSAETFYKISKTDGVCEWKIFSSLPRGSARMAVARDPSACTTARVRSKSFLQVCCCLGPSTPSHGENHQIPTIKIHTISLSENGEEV
Nature of the test: Displacement of [3H]prazosin from calf cerebral cortex alpha-1 adrenergic receptor. The class given is tissue-based. For orientation: In a radioligand displacement assay an active substance lowers the binding of a labelled ligand.

Test [4] deals with T2, Adrenergic receptor alpha-2 (Rattus norvegicus, UniProt P22086+P19328+P22909).
T2 sequence (P22086 whole entry): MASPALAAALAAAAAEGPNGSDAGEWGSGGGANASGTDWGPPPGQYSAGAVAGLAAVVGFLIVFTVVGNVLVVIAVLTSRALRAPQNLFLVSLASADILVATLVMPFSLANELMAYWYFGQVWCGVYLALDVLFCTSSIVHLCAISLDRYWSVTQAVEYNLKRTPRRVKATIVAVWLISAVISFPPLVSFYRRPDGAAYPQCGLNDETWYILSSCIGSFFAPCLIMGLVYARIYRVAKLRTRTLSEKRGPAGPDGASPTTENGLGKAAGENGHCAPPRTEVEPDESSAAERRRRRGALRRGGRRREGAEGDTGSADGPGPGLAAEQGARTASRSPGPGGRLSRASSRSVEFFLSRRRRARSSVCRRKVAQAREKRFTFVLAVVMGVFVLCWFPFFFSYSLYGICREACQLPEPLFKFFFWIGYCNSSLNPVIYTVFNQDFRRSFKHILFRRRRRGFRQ
T2 sequence (P19328 whole entry): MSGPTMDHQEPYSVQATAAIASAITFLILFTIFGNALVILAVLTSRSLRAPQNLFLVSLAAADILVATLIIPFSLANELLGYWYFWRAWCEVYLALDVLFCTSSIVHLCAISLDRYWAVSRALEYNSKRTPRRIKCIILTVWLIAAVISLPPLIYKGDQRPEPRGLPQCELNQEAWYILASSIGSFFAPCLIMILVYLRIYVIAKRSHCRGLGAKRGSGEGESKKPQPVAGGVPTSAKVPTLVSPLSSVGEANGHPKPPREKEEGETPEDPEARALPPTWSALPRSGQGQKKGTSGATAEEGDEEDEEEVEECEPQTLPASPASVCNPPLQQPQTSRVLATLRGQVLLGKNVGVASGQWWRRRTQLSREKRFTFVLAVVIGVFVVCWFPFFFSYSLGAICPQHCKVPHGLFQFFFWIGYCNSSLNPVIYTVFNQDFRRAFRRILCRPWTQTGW
T2 sequence (P22909 whole entry): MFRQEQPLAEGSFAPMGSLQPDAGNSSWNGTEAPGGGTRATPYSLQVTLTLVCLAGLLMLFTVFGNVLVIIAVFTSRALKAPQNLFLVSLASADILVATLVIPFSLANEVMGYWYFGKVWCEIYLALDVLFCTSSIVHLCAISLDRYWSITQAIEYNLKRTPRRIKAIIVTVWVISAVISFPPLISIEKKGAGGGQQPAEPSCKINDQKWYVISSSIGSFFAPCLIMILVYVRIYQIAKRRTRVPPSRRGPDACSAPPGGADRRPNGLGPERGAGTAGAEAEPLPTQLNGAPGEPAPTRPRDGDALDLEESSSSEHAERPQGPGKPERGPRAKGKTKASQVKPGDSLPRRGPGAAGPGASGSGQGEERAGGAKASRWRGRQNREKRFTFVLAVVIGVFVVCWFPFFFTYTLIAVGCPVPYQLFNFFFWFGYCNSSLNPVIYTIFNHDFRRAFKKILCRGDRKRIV
Nature of the test: Antagonistic activity against clonidine-stimulated rat vas deferens presynaptic alpha-2 adrenergic receptor. The class given is functional, tissue-based.

Test [5] can be described thus: Selectivity ratio expressed as the ratio of -log methoxamine pA2 to -log clonidine pA2.
For test [6], the target named is T3, Adrenergic receptor alpha-1 (Rattus norvegicus, UniProt P15823+P23944+P43140).
T3 sequence (P15823 whole entry): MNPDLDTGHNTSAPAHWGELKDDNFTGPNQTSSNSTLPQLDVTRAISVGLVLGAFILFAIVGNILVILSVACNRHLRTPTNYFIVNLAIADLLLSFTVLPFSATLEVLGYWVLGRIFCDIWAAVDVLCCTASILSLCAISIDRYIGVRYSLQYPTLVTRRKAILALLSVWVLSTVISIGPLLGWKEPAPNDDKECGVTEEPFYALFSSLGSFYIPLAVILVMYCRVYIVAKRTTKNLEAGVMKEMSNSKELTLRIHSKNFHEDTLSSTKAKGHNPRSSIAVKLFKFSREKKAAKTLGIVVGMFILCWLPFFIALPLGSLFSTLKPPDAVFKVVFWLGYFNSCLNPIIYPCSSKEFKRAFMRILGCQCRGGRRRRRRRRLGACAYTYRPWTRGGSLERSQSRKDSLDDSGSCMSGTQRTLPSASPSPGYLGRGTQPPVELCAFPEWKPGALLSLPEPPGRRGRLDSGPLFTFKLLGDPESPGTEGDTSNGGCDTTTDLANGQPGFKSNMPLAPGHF
T3 sequence (P23944 whole entry): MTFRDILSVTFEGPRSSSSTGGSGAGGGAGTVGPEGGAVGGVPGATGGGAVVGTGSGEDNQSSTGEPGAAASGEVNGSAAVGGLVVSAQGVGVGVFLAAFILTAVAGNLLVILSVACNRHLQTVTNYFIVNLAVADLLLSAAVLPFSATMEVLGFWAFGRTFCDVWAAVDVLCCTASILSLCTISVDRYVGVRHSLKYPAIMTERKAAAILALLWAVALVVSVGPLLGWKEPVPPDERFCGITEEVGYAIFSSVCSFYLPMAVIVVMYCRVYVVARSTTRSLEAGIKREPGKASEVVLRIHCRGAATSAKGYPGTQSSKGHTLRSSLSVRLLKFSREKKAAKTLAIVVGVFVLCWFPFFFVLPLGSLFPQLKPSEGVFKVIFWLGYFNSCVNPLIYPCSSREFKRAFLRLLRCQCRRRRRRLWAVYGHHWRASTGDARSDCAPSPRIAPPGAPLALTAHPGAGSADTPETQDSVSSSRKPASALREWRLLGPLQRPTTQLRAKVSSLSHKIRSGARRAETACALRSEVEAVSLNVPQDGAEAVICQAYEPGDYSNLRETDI
T3 sequence (P43140 whole entry): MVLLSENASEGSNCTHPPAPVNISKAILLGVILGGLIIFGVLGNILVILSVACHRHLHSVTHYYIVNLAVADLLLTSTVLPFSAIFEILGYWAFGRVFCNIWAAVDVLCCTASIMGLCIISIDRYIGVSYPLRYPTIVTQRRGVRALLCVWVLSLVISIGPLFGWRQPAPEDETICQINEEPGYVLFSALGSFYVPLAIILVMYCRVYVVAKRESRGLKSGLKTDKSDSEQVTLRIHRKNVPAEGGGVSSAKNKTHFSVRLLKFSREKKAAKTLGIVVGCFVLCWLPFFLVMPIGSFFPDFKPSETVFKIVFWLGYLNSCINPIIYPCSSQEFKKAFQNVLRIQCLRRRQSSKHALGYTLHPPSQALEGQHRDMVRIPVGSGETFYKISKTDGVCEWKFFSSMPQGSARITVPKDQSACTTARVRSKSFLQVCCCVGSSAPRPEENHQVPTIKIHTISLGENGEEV
Description: Antagonistic activity upon postsynaptic alpha-1 adrenergic receptor was determined in the rat isolated, field stimulated vas deferens using methoxamine. The class given is functional, tissue-based.

The subject of the next test is Mus musculus. Description: Compound was evaluated for its antagonistic effect on the Tetrabenazine-induced ptosis following intravenous administration. Type of test: functional.

The text below walks through data of ChEMBL document CHEMBL1122727, “Adrenoceptor and tetrabenazine antagonism activities of some pyridinyltetrahydropyridines” (J Med Chem, 1984).

On to `C1=C(c2ccccn2)CCNC1`, for which the Selectivity ratio in test [1] was 28. In addition, the Ki (commonly a dissociation constant, usually derived from enzyme kinetics or from competition with a known ligand) worked out at 0.144 µM in test [2] and 4 µM in test [3]. Moreover, the pA2 (usually the negative logarithm of the molar antagonist concentration that doubles the agonist concentration needed for the same response) in test [4] is on record as below 5.7.
On to `c1ccc(N2CCNCC2)nc1`, for which the Selectivity ratio in test [1] was 65; in test [5], 5. Besides, the Ki in test [2] was 0.037 µM.
With `CN1CC=C(c2ccccn2)CC1`, the results for the Selectivity ratio in test [1] and in test [5] were 44 and 6, respectively. Moreover, the Ki in test [2] came to 0.057 µM; in test [3] it was 2.5 µM. Moreover, the pA2 is 5.4 in test [6] and 6.2 in test [4]. Also, in the test with Mus musculus, the ED50 (in general, the dose that gives a 50% effect, or the effect in half of the subjects) came out at 0.5 mg/kg.
Consider `Cc1cccnc1C1=CCN(C)CC1`, for which the Selectivity ratio in test [1] worked out at 15. Also, the Ki in test [2] amounted to 0.17 µM; in test [3], 2.5 µM. The pA2 in test [4] is below 5.8.
For the compound `CNCCCN1c2ccccc2CCc2ccccc21` [DESIPRAMINE], the 50% effect level in the test on Mus musculus (ED50) was put at a dose of 0.07 mg/kg.
For the compound `CN1CCC(c2ccccn2)CC1`, the Selectivity ratio in test [1] stood at 6. The Ki in test [2] is 0.42 µM; in test [3], 2.5 µM. For the same compound, in test [4], the pA2 was below 5.8.
Consider `CN1CC=C(c2cccnc2)CC1`, for which the Selectivity ratio in test [1] came to 6.4. In addition, the values for the Ki in test [2] and in test [3] were 0.75 µM and 4.8 µM, respectively. Moreover, the pA2 in test [4] is on record as below 5.8.
For `CN1CC=C(c2ncccc2Cl)CC1`, in that order: 31, 0.072 µM, 2.26 µM and below 5.9.
Regarding `CN1CCN(c2ncccc2F)CC1`, the Selectivity ratio in test [1] worked out at 98; in test [5], 16. Further, in test [2], the Ki was found to be 0.005 µM.
With `CN1CC=C(c2ccncc2F)CC1`, the Selectivity ratio in test [1] was determined as 11. In addition, the inhibition constant Ki is 0.72 µM in test [2] and 7.7 µM in test [3]. The same compound gave a pA2 in test [4] below 5.8.
Regarding `CN1CC=C(c2ncccc2F)CC1`, the Selectivity ratio in test [1] turned out to be 150; in test [5], 32. Further, the Ki in test [2] was determined as 0.022 µM; in test [3] it was 3.3 µM. Further, the pA2 in test [6] came to 5.3; in test [4], 6.8. This compound also registered an ED50 in the test with Mus musculus of 0.35 mg/kg.
